Data on 11 compounds can be found in PubChem BioAssay (NCI).

Values joined by “and” are separate entries in the source; they are usually repeats but may differ in a detail not shown here. Identical values can stand only once.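 Cells were grown in 96-well plates and exposed to each compound for 48 hours at five concentrations; endpoints were interpolated linearly between bracketing concentrations, or set to the highest concentration if not reached. Here, GI50 denotes the concentration required for 50% inhibition of growth. TGI: concentration producing complete growth inhibition.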

Among the test systems are UACC-257 melanoma; SW-620 colon; A498 renal; NCI-H226 lung; SF-268 CNS; HCC-2998 colon; KM12 colon; UACC-62 melanoma; K-562 leukemia; CCRF-CEM leukemia.
Common to all, as to experiment: NCI-60 cell line screen, 48 h

On to `CC(=O)N[C@H](C)[C@@H](O)[C@@H](C)[C@@H]1OC(=O)/C=C/C=C(C)\C=C\[C@]2(C)C[C@@H](NS(C)(=O)=O)C=C[C@@H]2/C=C(C)/C=C/[C@H]1C`, for which the GI50 with UACC-257 melanoma was 0.0227 µM and 0.00967 µM; in the assay on SW-620 colon it was 0.00821 µM and 0.0135 µM; in the assay on A498 renal, 0.0068 µM and 0.0121 µM; in the assay on NCI-H226 lung, 0.0156 µM and 0.00593 µM; with SF-268 CNS it was 0.357 µM and 0.0531 µM; with KM12 colon, 0.125 µM and 0.0277 µM. Also, the GI50 is 0.00725 µM and 0.0278 µM in the assay on UACC-62 melanoma; 0.00684 µM and 0.0218 µM in the assay with K-562 leukemia. Besides, the TGI in the assay with UACC-257 melanoma, in the assay with SW-620 colon, in the assay on NCI-H226 lung, with SF-268 CNS, in the assay with HCC-2998 colon and in the assay with KM12 colon was above 43.5 µM in each case. Also, the TGI in the assay with UACC-62 melanoma and with K-562 leukemia was above 43.5 µM in each case.

As for `Cc1ccc2c(c1)[n+](=O)c(C(=O)c1cccs1)c(C(F)(F)F)n2[O-]`, the GI50 with CCRF-CEM leukemia was 1.72 µM; in the assay on UACC-257 melanoma, 2.28 µM and 0.237 µM; with SW-620 colon, 2.02 µM and 3.58 µM; in the assay on NCI-H226 lung, 2.21 µM; in the assay with SF-268 CNS, 0.881 µM and 0.108 µM; in the assay with HCC-2998 colon, 0.638 µM and 0.238 µM. In addition, the GI50 with KM12 colon is 0.849 µM and 1.4 µM; in the assay with UACC-62 melanoma, 0.951 µM and 1.91 µM; in the assay with K-562 leukemia it was 1.01 µM and 0.466 µM. For the same compound, the TGI in the assay on CCRF-CEM leukemia was 50 µM; in the assay on SW-620 colon, 50 µM and 20.4 µM; with NCI-H226 lung, 13.2 µM; in the assay on SF-268 CNS it was 3.31 µM and 0.511 µM; in the assay on HCC-2998 colon, 2.1 µM and 0.559 µM; with KM12 colon, 3.79 µM and 16.3 µM. Moreover, the TGI in the assay with UACC-62 melanoma is 2.73 µM and 13.9 µM; in the assay on K-562 leukemia it was 50 µM and 19.5 µM.

Take `O=C(O)C1C2C=CC(O2)C1C(=O)NCc1cccnc1` (stereo unspecified): the TGI in the assay on CCRF-CEM leukemia, with UACC-257 melanoma, with SW-620 colon, with A498 renal, in the assay with NCI-H226 lung and in the assay with SF-268 CNS was above 100 µM in each case. For the same compound, the TGI in the assay with KM12 colon, in the assay on UACC-62 melanoma and with K-562 leukemia was above 100 µM throughout.

`CCCCC(C(=O)C(=O)Nc1ccc(C)cc1C)C(=O)C(C)C` (stereo unspecified): the TGI with UACC-257 melanoma, with SW-620 colon, in the assay with A498 renal, in the assay on NCI-H226 lung, with SF-268 CNS and in the assay on HCC-2998 colon was above 100 µM in each case. Besides, the TGI in the assay with KM12 colon, with UACC-62 melanoma and with K-562 leukemia was above 100 µM in each case.

As to `O=C1OC(CC(=O)c2ccc(F)cc2)C(Cl)=C1Cl` (stereo unspecified), the TGI is above 100 µM in the assay with CCRF-CEM leukemia; 33.6 µM in the assay with UACC-257 melanoma; 46.2 µM with SW-620 colon; 33.8 µM in the assay on NCI-H226 lung; 30.1 µM in the assay with HCC-2998 colon; 33 µM with KM12 colon. For the same compound, the figures for the TGI in the assay with UACC-62 melanoma and with K-562 leukemia were 32.2 µM and above 100 µM, respectively.

Consider `Cc1cc(S(=O)(=O)/N=C(\N)Nc2cccc(O)c2)c(SCc2ccccc2)cc1Cl`, for which the GI50 in the assay with UACC-257 melanoma was 17.7 µM; in the assay with SW-620 colon, 29.3 µM; in the assay on A498 renal, 17.8 µM; in the assay with NCI-H226 lung, 24 µM; with SF-268 CNS it was 17.4 µM; in the assay on HCC-2998 colon, 32.6 µM. Moreover, the figures for the GI50 with KM12 colon, in the assay with UACC-62 melanoma and with K-562 leukemia were 15.6 µM, 14.1 µM and 8.28 µM, respectively. In addition, the TGI was 35.1 µM in the assay with UACC-257 melanoma; above 100 µM with SW-620 colon; 35.7 µM in the assay with A498 renal; 62.3 µM in the assay on NCI-H226 lung; 69 µM in the assay on SF-268 CNS; 65.1 µM in the assay with HCC-2998 colon. For the same compound, the TGI in the assay with KM12 colon is 54.4 µM; in the assay with UACC-62 melanoma it was 30.2 µM; with K-562 leukemia it was above 100 µM.

In the case of `O=C(NC1CCN(Cc2ccccc2)CC1)c1cc(-c2cccnc2)nc2ccc(Cl)cc12`, the GI50 was above 100 µM in the assay with UACC-257 melanoma; 11.5 µM in the assay on SW-620 colon; 9.72 µM with NCI-H226 lung; 9.27 µM in the assay with SF-268 CNS; 5.51 µM in the assay on HCC-2998 colon; 13.7 µM with KM12 colon. Also, the GI50 in the assay with UACC-62 melanoma is 17.4 µM; in the assay on K-562 leukemia, 3.43 µM. Also, the TGI is above 100 µM in the assay with UACC-257 melanoma; above 100 µM in the assay with SW-620 colon; 5.49 µM in the assay with A498 renal; 50.3 µM with NCI-H226 lung; 70.1 µM with SF-268 CNS; above 100 µM in the assay with HCC-2998 colon. In addition, the TGI in the assay on KM12 colon is above 100 µM; in the assay with UACC-62 melanoma, above 100 µM; in the assay on K-562 leukemia, 76.8 µM.

`O/N=C1/CCC/C1=C\c1ccccc1`: the TGI in the assay with CCRF-CEM leukemia, in the assay on UACC-257 melanoma, in the assay on SW-620 colon, in the assay on NCI-H226 lung, with SF-268 CNS and in the assay on HCC-2998 colon was above 100 µM throughout. For the same compound, the TGI with KM12 colon, with UACC-62 melanoma and in the assay with K-562 leukemia was above 100 µM throughout.

As to `CC1(C)OB(c2ccc(N(CCOS(C)(=O)=O)CCOS(C)(=O)=O)cc2)OC1(C)C`, the GI50 with CCRF-CEM leukemia is 1.98 µM; with UACC-257 melanoma, 21.6 µM; in the assay with SW-620 colon, 17.1 µM; in the assay with NCI-H226 lung, 9.02 µM; in the assay with SF-268 CNS, 23 µM; in the assay on HCC-2998 colon it was 15.7 µM. Moreover, the results for the GI50 in the assay with KM12 colon, in the assay on UACC-62 melanoma and in the assay on K-562 leukemia were 26.8 µM, 13 µM and 16.3 µM, respectively. In addition, the TGI in the assay on CCRF-CEM leukemia is above 39.6 µM; in the assay on UACC-257 melanoma, above 60.5 µM; with SW-620 colon it was above 100 µM; in the assay on NCI-H226 lung it was 33.6 µM; in the assay on SF-268 CNS it was above 83.7 µM; with HCC-2998 colon it was 49 µM. In addition, the values for the TGI in the assay on KM12 colon, in the assay on UACC-62 melanoma and with K-562 leukemia were above 85 µM, 33 µM and above 86.2 µM, respectively.

On to `COc1ccc2[nH]c(Cl)c(/C=C3/C(=O)Nc4ccccc43)c2c1`, for which the GI50 with CCRF-CEM leukemia was 0.216 µM; with UACC-257 melanoma, 0.984 µM; in the assay on SW-620 colon it was 0.366 µM; in the assay on NCI-H226 lung it was 0.782 µM; with SF-268 CNS, 0.939 µM; with KM12 colon it was 0.563 µM. For the same compound, the values for the GI50 in the assay on UACC-62 melanoma and in the assay with K-562 leukemia were 1.11 µM and 0.444 µM, respectively. The TGI in the assay with CCRF-CEM leukemia amounted to 0.737 µM; in the assay on UACC-257 melanoma it was 11.2 µM; in the assay with SW-620 colon, 7.58 µM; in the assay with NCI-H226 lung it was 19.2 µM; in the assay with SF-268 CNS, 36.5 µM; in the assay on KM12 colon, 3.09 µM. In addition, the TGI in the assay on UACC-62 melanoma amounted to 2.51 µM; in the assay on K-562 leukemia it was 13.2 µM.

Consider `O=C1/C(=C/c2cccnc2)SC(=S)N1Cc1ccco1`, for which the TGI in the assay on CCRF-CEM leukemia was 14.5 µM; with UACC-257 melanoma, above 31.5 µM; in the assay on SW-620 colon, above 100 µM; in the assay with A498 renal, 70.6 µM; in the assay on NCI-H226 lung, 92 µM; in the assay with SF-268 CNS, above 23.9 µM. Further, the TGI in the assay on KM12 colon is 14.5 µM; with UACC-62 melanoma it was above 82.3 µM; with K-562 leukemia, above 48 µM.
